Assay results as given in patent US20180187184A1, “NOVEL CONSTRUCTS AND SCREENING METHODS” (Systasy Bioscience GmbH, priority 2016, published 2018).
Where two headings read alike, the source gives them in different places.

B1: brain-derived neurotrophic factor (protein, UniProt P23560 19-247, looked up)
Neurotrophic factor BDNF …: APMKEANIRGQGGLAYPGVRTHGTLESVNGPKAGSRGLTSLADTFEHVIEELLDEDQKVRPNEENNKDADLYTSRVMLSSQVPLEPPLLFLLEEYKNYLDAANMSMRVRRHSDPARRGELSVCDSISEWVTAADKKTAVDMSGGTVTVLEKVPVSKGQLKQYFYETKCNPMGYTKEGCRGIDKRHWNSQCRTTQSYVRALTMDSKKRIGWRFIRIDTSCVCTLTIKRGR
notes: well-established stimulus with functions in neuronal differentiation and plasticity

What was measured:
primary neurons = assay: Rotenone dose-response cell viability assay (nuclei count, genomic DNA and total RNA quantification); format: cell-based, mouse; settings: for IC50: Mus musculus, Primary neuron, 168 h
Protocol: Cells were incubated under appropriate culturing conditions until DIV14.
Cell nuclei were stained on DIV14 with Hoechst dye and evaluated with a Zeiss Observer Z1 microscope. Subsequently, the neuron cultures were lysed and gDNA as well as total RNA was isolated using the Qiagen AllPrep DNA/RNA Mini Kit. The gDNA and total RNA concentrations were determined using a UV spectrophotometer.
The present inventors first evaluated changes in the abundance of genomic DNA and total RNA in response to cytotoxic stress within a primary neuron population.

E-SARE sensor = assay: E-SARE luciferase activity in primary neurons upon stimulation; format: cell-based, mouse; settings: DIV14
From the text: For multiplate assays, cells were transfected (for cell lines) using Lipofectamine2000 (Invitrogen) according to the manufacturer's instructions or infected (for primary neurons) by an E-SARE-luciferase containing AAV with 500-1000 AAV GCs per cell.
The assay compares an unstimulated response with a stimulated response.
Finally, the E-SARE sensor not only responds to neuronal silencing (TTX/APV) and synaptic stimulation (BIC/4-AP), but can also be induced by brain-derived neurotrophic factor (BDNF) which is a well-established stimulus with functions in neuronal differentiation and plasticity (FIG. 6C) (Park H and Poo M. Nat Rev Neurosci. 2013 January; 14(1):7-23). The optimized and validated E-SARE sensor has been subsequently used for developing the pooled RNAi screen in primary neurons.

| Molecule | IC50 (primary neurons; read-out: IC50, genomic DNA content) [nM] | IC50 (primary neurons; read-out: IC50, total RNA content) [nM] | IC50 (primary neurons; read-out: IC50, viable cells (pyknotic nuclei filtered out)) [nM] | reduction of genomic DNA content (primary neurons; rotenone concentrations above 100 nM, 7 days) [%] | E-SARE sensor activity (E-SARE sensor) |
| --- | --- | --- | --- | --- | --- |
| C=C(C)[C@H]1Cc2c(ccc3c2O[C@@H]2COc4cc(OC)c(OC)cc4[C@@H]2C3=O)O1 [rotenone] | 40 | 15 | 14 | ~40 | – |
| B1 | – | – | – | – | induced |
